Laboratory results reported in patent US20090036352A1, “DRUG DELIVERY SYSTEMS FOR THE PREVENTION AND TREATMENT OF VASCULAR DISEASES COMPRISING RAPAMYCIN AND DERIVATIVES THEREOF” (priority 2002, published 2009).

Assays:
[1] = system: New Zealand White rabbit iliac arteries; assay: Inhibition of restenosis at 28 days in the rabbit iliac stent model; type: in vivo
Experimental: A.2 Inhibition of Restenosis at 28 Days in the Rabbit Iliac Stent Model
A combined angioplasty and stenting procedure is performed in New Zealand White rabbit iliac arteries. Iliac artery balloon injury is performed by inflating a 3.0×9.0 mm angioplasty balloon in the mid-portion of the artery followed by “pull-back” of the catheter for 1 balloon length. Balloon injury is repeated 2 times, and a 3.0×12 mm stent is deployed at 6 atm for 30 seconds in the iliac artery. Balloon injury and stent placement is then performed on the contralateral iliac artery in the same manner. A post-stent deployment angiogram is performed. All animals receive oral aspirin 40 mg/day daily as anti-platelet therapy and are fed standard low-cholesterol rabbit chow. Twenty-eight days after stenting, animals are anesthetized and euthanized and the arterial tree is perfused at 100 mmHg with lactated Ringer's for several minutes, then perfused with 10% formalin at 100 mmHg for 15 minutes. The vascular section between the distal aorta and the proximal femoral arteries is excised and cleaned of periadventitial tissue. The stented section of artery is embedded in plastic and sections are taken from the proximal, middle, and distal portions of each stent. All sections are stained with hematoxylin-eosin and Movat pentachrome stains. Computerized planimetry is performed to determine the area of the internal elastic lamina (IEL), external elastic lamina (EEL) and lumen. The neointima and neointimal thickness is measured both at and between the stent struts. The vessel area is measured as the area within the EEL. Data are expressed as mean ±SEM. Statistical analysis of the histologic data is accomplished using analysis of variance (ANOVA) due to the fact that two stented arteries are measured per animal with a mean generated per animal. A P<0.05 is considered statistically significant.
A compound of formula I, e.g. 40-O-(2-hydroxyethyl)-rapamycin, is administered orally by gavage at a loading dose of 1.5 mg/kg one day prior to stenting, then dosed at 0.75 mg/kg/day from the day of stenting until day 27 post-stenting. In this model, the treatment with the compounds of formula I results in a marked reduction in the extent of restenotic lesion formation: for example, the treatment with 40-O-(2-hydroxyethyl)-rapamycin produces a significant (P<0.03) reduction in neointimal thickness (40% reduction), neointimal area (24% reduction), and percent arterial stenosis (26% reduction) with a significant 32% increase in lumen area. There is extensive neointimal formation in placebo-treated animals at 28 days, with the lesions consisting of abundant smooth muscle cells in proteoglycan/collagen matrix and apparent full endothelial healing.

[2] = Release of drug from coated stents in PBS or PEG/water; type: physicochemical; details: PBS pH 7.4 or PEG 400/water 40/60 v/v, 37° C., stable = less than 10% of variation of the drug release
Experimental: Four 2 cm pieces of coated stents as described above are placed into 100 ml of phosphate buffer solution (PBS) having a pH of 7.4. Another 4 pieces from each series are placed into 100 ml polyethylene glycol (PEG)/water solution (40/60 v/v, MW of PEG=400). The stent pieces are incubated at 37° C. in a shaker. The buffer and PEG solutions are changed daily and different assays are performed on the solution to determine the released 40-O-(2-hydroxyethyl)-rapamycin concentrations. Such assays can show a stable release of 40-O-(2-hydroxyethyl)-rapamycin from coated stents for more than 45 days. By the term “stable release of 40-O-(2-hydroxyethyl)-rapamycin” is meant less than 10% of variation of the drug release. Controlled release techniques used by a person skilled in the art allow an unexpected easy adaptation of the required drug release rate. Thus, by selecting appropriate amounts of reactants in the coating mixture it is possible to easily control the bioeffectiveness of the rapamycin or rapamycin derivastive coated stents.

dialysis patients = assay: Prevention or reduction of vascular access dysfunction after insertion of an indwelling catheter in dialysis patients; type: in vivo, human; details: daily dose 0.75 to 20 mg, 3 month treatment, observation period 6 months
Experimental: A5. Prevention or Reduction of Vascular Access Dysfunction in Association with the Insertion of an Indwelling Catheter into the Vein of a Patient
One hundred fifty prospective dialysis patients, who undergo successful insertion of an indwelling, large bore catheter, into a vein are selected for the study. […] In addition, patients may also be given a calcium antagonist, nitrates and/or anti-platelet agents. These drugs are administered for 3 consecutive months following catheter insertion.

[3] = system: ballooned carotid of Sprague Dawley rats; assay: Inhibition of restenosis at 14 days in the rat carotid stent model, perivascular local delivery; type: in vivo; details: local perivascular administration, 10 to 200 μg/day
Experimental: A.3 Inhibition of Restenosis at 14 Days in the Rat Carotid Stent Model
Male Sprague Dawley rats weighing […] are housed individually and allowed to acclimate prior to surgery. All animals receive standard rat chow and water ad libitum. Group size is 12 animals per group.
The drug(s) administration is perivascular. A segment of ballooned carotid is encircled with a 1 cm length of silastic tubing (0.25 inch inside diameter, 0.47 inch outside diameter) to which is attached a catheter which feeds into an osmotic pump containing either compound or vehicle. This delivery system provides continuous, local delivery to the adventitia of the wrapped portion of vessel. Local drug(s) administration ranges between 5 μg and 10 mg, locally per day, depending on the solubility characteristics of the individual compounds. […]
Animals are killed at 14 days post-balloon injury. […] Animals are killed by administration of an overdose of ketamine and rompun, the osmotic pumps are recovered and the volume of remaining content is recorded to ensure that pump failure has not occurred.
Carotid, arteries are excised and immersion fixed, then transferred to Ringer's solution. […] The intimal lesion area and the medial area are determined by measurement of the internal elastic lamina, the external elastic lamina and the vessel/lumen interface.

[4] = system: rat carotid artery balloon injury model; assay: Inhibition of late neointimal lesion formation in the 28 day rat carotid artery balloon injury model; type: in vivo; details: for percent inhibition of neointimal lesion formation: oral, 28 days post-balloon injury
Experimental: A1. Inhibition of Late Neointimal Lesion Formation in the 28 Day Rat Carotid Artery Balloon Injury Model
Compounds of formula I are tested in the following rat model.
Rats are dosed orally with placebo or a compound of formula I. Daily dosing starts 3 days prior to surgery and continues for 31 days. Rat carotid arteries are balloon injured using a method described by Clowes et al. Lab. Invest. 1983; 49; 208-215. Following sacrifice at 28 days post-balloon injury, carotid arteries are removed and processed for histologic and morphometric evaluation. […] For example for 40-O-(2-hydroxyethyl)-rapamycin administered at 0.5, 1.0, and 2.0 mg/kg, the percent inhibition is similar at all three doses: inhibition is 31% at the lowest dose (0.5 mg/kg) and 39% at the highest dose (2.0 mg/kg). Compounds of formula I, e.g. 40-O-(2-hydroxyethyl)-rapamycin, have the beneficial effect to inhibit lesions at 4 weeks post-ballooning.

[5] = oral gavage, loading 1.5 mg/kg then 0.75 mg/kg/day to day 27, 28 days post-stenting, P<0.03

CO[C@H]1C[C@@H]2CC[C@@H](C)[C@@](O)(O2)C(=O)C(=O)N2CCCC[C@H]2C(=O)O[C@H]([C@H](C)C[C@@H]2CC[C@@H](OCCO)[C@H](OC)C2)CC(=O)[C@H](C)/C=C(\C)[C@@H](O)[C@@H](OC)C(=O)[C@H](C)C[C@H](C)/C=C/C=C/C=C/1C [40-O-(2-hydroxyethyl)-rapamycin]
histology of the intima of stented arterial segments ([1]; majority of arterial segments, 28 days post-stenting): the intima is well healed
endothelialization of stented arteries (scanning electron microscopic analysis) ([1]; n=4 arteries, 28 days post-stenting): 84%
increase in lumen area ([1]; oral gavage, loading 1.5 mg/kg then 0.75 mg/kg/day to day 27, 28 days post-stenting): 32%
reduction in neointimal area [1, 5]: 24%
reduction in neointimal thickness [1, 5]: 40%
reduction in percent arterial stenosis [1, 5]: 26%
duration of stable release from coated stents [2]: more than 45 days
prevention or reduction of vascular access dysfunction (dialysis patients): demonstrate the efficacy
neointimal lesion formation at 14 days post ballooning [3]: reduces neointimal lesion formation
neointimal lesion formation at 28 days following balloon injury ([4]; oral daily dosing from 3 days prior to surgery for 31 days, 0.5 to 2.0 mg/kg): significantly reduce neointimal lesion formation
percent inhibition of neointimal lesion formation ([4]; 0.5 mg/kg): 31%
percent inhibition of neointimal lesion formation ([4]; 2.0 mg/kg): 39%
